Settings: Liquid, Vibrating tube method

Cc1ccccc1 [toluene]
mass density [kg/m3]
Settings | 298.15 K | 323.15 K | 348.15 K | 373.15 K | 398.15 K
100 kPa | 862 | 838.7 | 814.6 | – | –
1000 kPa | 862.7 | 839.5 | 815.6 | 791.1 | 765.3
5000 kPa | 865.7 | 843.1 | 819.8 | 796 | 771.3
10000 kPa | 869.4 | 847.4 | 824.7 | 801.8 | 778.3
15000 kPa | 873 | 851.5 | 829.5 | 807.3 | 784.7
20000 kPa | 876.4 | 855.4 | 834 | 812.5 | 790.8
30000 kPa | 882.9 | 862.7 | 842.4 | 822 | 801.6
40000 kPa | 889 | 869.5 | 850 | 830.6 | 811.2
45000 kPa | 891.9 | 872.7 | 853.6 | 834.6 | 815.7
50000 kPa | 894.7 | 875.9 | 857.1 | 838.4 | 819.9
60000 kPa | 900.2 | 881.9 | 863.8 | 845.8 | 828

CC(C)CCCC(C)CCCC(C)CCCCC(C)CCCC(C)CCCC(C)C (stereo unspecified) [2,6,10,15,19,23-hexamethyltetracosane]
mass density [kg/m3]
Settings | 298.15 K | 323.15 K | 348.15 K | 373.15 K | 398.15 K
100 kPa | 804.9 | 789 | 773 | – | –
1000 kPa | 805.4 | 789.6 | 773.7 | 758 | 742.1
5000 kPa | 807.8 | 792.3 | 776.7 | 761.3 | 745.9
10000 kPa | 810.7 | 795.5 | 780.3 | 765.3 | 750.4
15000 kPa | 813.4 | 798.6 | 783.7 | 769.1 | 754.6
20000 kPa | 816.1 | 801.5 | 787 | 772.7 | 758.6
30000 kPa | 821.2 | 807.1 | 793.2 | 779.5 | 766.1
40000 kPa | 826 | 812.3 | 799 | 785.8 | 772.9
45000 kPa | 828.3 | 814.8 | 801.7 | 788.7 | 776.1
50000 kPa | 830.5 | 817.2 | 804.3 | 791.6 | 779.1
60000 kPa | 834.8 | 821.9 | 809.3 | 797.1 | 785

Reference: the NIST ThermoML archive (doi:10.1016/j.jct.2009.07.013)
